Measured values: PMC11677235, “Heterologous Production, Purification and Characterization of Two Cold-Active β-D-Galactosidases with Transglycosylation Activity from the Psychrotolerant Arctic Bacterium Arthrobacter sp. S3* Isolated from Spitsbergen Island Soil” (International Journal of Molecular Sciences, 2024)
Read-outs that look alike come from different tables or passages of the source. Each block holds one molecule with its values, some of them ahead of it.

Key:
Assay type in all cases: biochemical
[1] = biological target: T1, Arthrobacter sp. S3* Bgal2 (GH2 β-D-galactosidase) (Arthrobacter sp. ON14, UniProt D9IU58); assay: o-nitrophenol release, absorbance […] nm, Lineweaver-Burk; details: 20 mM potassium phosphate, 50 mM KCl, pH 7.5, 20 °C; read-out: Km (mM) / ONPG
T1 construct: gene galA
Source text: S3* Bgal2 (GH2 β-D-galactosidase)

[2] = biological target: T2, Arthrobacter sp. S3* Bgal42 (GH42 β-D-galactosidase) (Arthrobacter sp. ON14, UniProt D9IU57, P2A/G388S/G665D); assay: inhibition of ONPG hydrolysis, absorbance […] nm; details: 5 mM monosaccharide, 1-5 mM ONPG, 20 mM potassium phosphate, pH 7.0, 30 °C, read-out: apparent Ki
T2 construct: gene galB

[3] = biological target: T1, Arthrobacter sp. S3* Bgal2 (GH2 β-D-galactosidase); assay: glucose release by Glucose (GO) Assay Kit, Lineweaver-Burk; details: read-out: Km (mM) / Lactose; 20 mM potassium phosphate, 50 mM KCl, pH 7.5, 20 °C
Source text: glucose release by Glucose (GO) Assay Kit, Lineweaver-Burk on Arthrobacter sp. S3* Bgal2 (GH2 β-D-galactosidase)

T2 sequence (D9IU57 entry or part of it P2A/G388S/G665D): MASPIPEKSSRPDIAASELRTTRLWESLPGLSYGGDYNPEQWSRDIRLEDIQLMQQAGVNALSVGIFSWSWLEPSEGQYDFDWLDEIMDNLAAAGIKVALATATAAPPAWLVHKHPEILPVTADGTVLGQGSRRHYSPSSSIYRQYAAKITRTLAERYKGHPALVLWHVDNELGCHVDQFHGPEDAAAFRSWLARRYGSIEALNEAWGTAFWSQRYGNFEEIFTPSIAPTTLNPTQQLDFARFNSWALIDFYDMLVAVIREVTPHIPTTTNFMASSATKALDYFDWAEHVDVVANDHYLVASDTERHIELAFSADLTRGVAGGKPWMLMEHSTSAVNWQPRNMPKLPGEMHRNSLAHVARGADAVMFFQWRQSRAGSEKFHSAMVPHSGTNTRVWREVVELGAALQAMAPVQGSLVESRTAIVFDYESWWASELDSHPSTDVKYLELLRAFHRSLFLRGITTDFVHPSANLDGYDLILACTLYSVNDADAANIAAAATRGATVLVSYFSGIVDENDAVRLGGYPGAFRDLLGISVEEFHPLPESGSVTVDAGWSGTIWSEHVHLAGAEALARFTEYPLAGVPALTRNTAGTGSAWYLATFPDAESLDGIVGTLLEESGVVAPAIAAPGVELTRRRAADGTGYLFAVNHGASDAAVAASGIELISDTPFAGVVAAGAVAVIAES
T1 sequence (D9IU58 entry or part of it): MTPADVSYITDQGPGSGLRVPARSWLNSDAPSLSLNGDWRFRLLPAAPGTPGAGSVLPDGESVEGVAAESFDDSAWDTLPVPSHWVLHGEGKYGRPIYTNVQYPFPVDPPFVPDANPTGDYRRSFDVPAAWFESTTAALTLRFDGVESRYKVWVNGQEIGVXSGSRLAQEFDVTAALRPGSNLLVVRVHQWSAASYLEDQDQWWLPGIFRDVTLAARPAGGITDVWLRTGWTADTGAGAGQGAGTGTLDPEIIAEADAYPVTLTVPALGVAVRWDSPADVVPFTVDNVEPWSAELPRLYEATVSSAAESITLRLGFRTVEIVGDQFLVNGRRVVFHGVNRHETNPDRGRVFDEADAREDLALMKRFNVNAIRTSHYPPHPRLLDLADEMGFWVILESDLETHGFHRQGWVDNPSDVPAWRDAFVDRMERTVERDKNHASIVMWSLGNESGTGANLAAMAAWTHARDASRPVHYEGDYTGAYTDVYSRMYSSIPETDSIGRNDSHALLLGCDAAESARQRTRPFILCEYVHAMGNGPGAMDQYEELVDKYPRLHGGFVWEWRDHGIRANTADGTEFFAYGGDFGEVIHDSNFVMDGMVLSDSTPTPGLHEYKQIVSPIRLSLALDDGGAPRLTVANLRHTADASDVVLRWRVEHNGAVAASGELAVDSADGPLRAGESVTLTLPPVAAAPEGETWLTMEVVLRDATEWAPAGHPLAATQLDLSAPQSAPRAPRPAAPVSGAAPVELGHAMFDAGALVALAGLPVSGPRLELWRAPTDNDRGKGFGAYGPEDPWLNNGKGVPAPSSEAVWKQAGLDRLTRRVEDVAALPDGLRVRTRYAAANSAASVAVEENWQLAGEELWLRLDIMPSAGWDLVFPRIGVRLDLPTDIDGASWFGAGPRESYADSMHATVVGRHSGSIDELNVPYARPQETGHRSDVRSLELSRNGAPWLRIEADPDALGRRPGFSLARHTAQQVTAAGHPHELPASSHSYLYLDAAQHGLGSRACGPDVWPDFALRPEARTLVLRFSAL

Km [1]: 0.32 ± 0.07 mM
Compound: O=[N+]([O-])c1ccccc1O[C@@H]1O[C@H](CO)[C@H](O)[C@H](O)[C@H]1O [ONPG]

Ki ([2]; uncompetitive): 6.01 mM
Compound: OC[C@H]1OC(O)[C@H](O)[C@@H](O)[C@@H]1O (stereo partly drawn) [D-glucose]

Ki ([2]; competitive): 2.99 mM
Compound: OC[C@H]1OC(O)[C@H](O)[C@@H](O)[C@H]1O (stereo partly drawn) [D-galactose]

Km [3]: 16.7 ± 0.81 mM
Compound: OC[C@H]1O[C@@H](O[C@H]2[C@H](O)[C@@H](O)C(O)O[C@@H]2CO)[C@H](O)[C@@H](O)[C@H]1O (stereo partly shown) [lactose]
